# Results reported in PubChem BioAssay (NCI).
# “And” between values parts separate entries of the source, which are not always exact repeats. Equal entries are not always repeated.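 Protocol summary: plate cells (96-well), add compound at 5 concentrations, incubate 48 h, interpolate endpoints linearly. GI50 is the concentration that inhibits growth by half. Definition used: TGI = concentration required for complete inhibition of growth.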
# Assays:
# Assay in all cases: NCI anticancer screen, dose series, 48 h
# [1] = tested on: HCC-2998 colon
# [2] = tested on: SF-295 CNS
# [3] = tested on: HT29 colon
# [4] = tested on: NCI-H522 lung
# [5] = tested on: SK-MEL-5 melanoma
# [6] = tested on: LOX IMVI melanoma
# [7] = tested on: SF-539 CNS
# [8] = tested on: SK-MEL-2 melanoma
# [9] = tested on: NCI/ADR-RES ovarian
# [10] = tested on: CAKI-1 renal
Compound,TGI [1],TGI [2],TGI [3],TGI [4],TGI [5],TGI [6],TGI [7],GI50 [1],GI50 [8],TGI [8],GI50 [2],GI50 [3],GI50 [9],TGI [9],GI50 [4],GI50 [10],TGI [10],GI50 [5],GI50 [6],GI50 [7]
COCCOCOC(C)(C)[C@H](CCO)O[Si](c1ccccc1)(c1ccccc1)C(C)(C)C,18.9 µM,18.6 µM,21.4 µM,15.4 µM,26.7 µM,23.3 µM,27.4 µM,–,–,–,–,–,–,–,–,–,–,–,–,–
O=C1c2ccccc2C(=O)c2c1cc1c(c2[N+](=O)[O-])OCO1,4 µM,8.82 µM,22 µM,4.68 µM,11.7 µM,4.92 µM,6.31 µM,1.5 µM,2.56 µM,5.14 µM,2.27 µM,4.24 µM,1.15 µM,8.87 µM,2.01 µM,0.556 µM,4.51 µM,3.48 µM,1.43 µM,1.71 µM
CC(C)=CC(=O)OC1C2C(C)=CC(O)C(O)C2(C)C2C3(O)OCC24C(CC(=O)OC14)C(C)C3O (configuration not stated),0.572 µM,0.81 µM,0.836 µM,0.103 µM,0.064 µM,0.325 µM,0.187 µM,–,–,0.655 µM,–,–,–,123 µM,–,–,13.9 µM,–,–,–
OC1COC(OCc2ccccc2)C(O)C1O (configuration not stated),> 100 µM,> 100 µM,> 100 µM,> 100 µM,> 100 µM,> 100 µM,> 100 µM,–,–,> 100 µM,–,–,–,> 100 µM,–,–,> 100 µM,–,–,–
CC(C)=CCC/C(C)=C/CCC1(C)C=Cc2c(c3ccccc3oc2=O)O1 (configuration not stated),31.8 µM,33.9 µM,33.7 µM,29.3 µM,28.1 µM,32.4 µM,30.5 µM,–,–,31.4 µM,–,–,–,31.1 µM,–,–,33 µM,–,–,–
C/C(=N\NC(=S)Nc1ccc([N+](=O)[O-])cc1)c1nc2ncccc2[nH]1,10.8 µM,10.2 µM,2.04 µM,3.25 µM,5.27 µM,–,1.37 µM,–,–,4.06 µM,–,–,–,5.22 µM,–,–,> 100 µM,–,–,–
Cc1cccc(CNc2ncnc3[nH]ncc23)c1,–,> 100 µM,> 100 µM,> 100 µM,> 100 µM,> 100 µM,> 100 µM,–,–,> 100 µM,–,–,–,> 100 µM,–,–,> 100 µM,–,–,–
COc1cc(/C=C/C2=C(C#N)C(=O)OC2(C)C)ccc1O,> 100 µM,> 100 µM,> 100 µM,44.4 µM,> 100 µM,44.2 µM,–,–,–,> 100 µM,–,–,–,–,–,–,> 100 µM,–,–,–
CCCCCCCCCCCCC(O)C(=O)O (configuration not stated),> 100 µM,> 100 µM,> 100 µM,> 100 µM,> 100 µM,> 100 µM,> 100 µM,–,–,> 100 µM,–,–,–,> 100 µM,–,–,> 100 µM,–,–,–
O=C(O)CCCc1ccccc1,517 µM and > 1000 µM,738 µM and > 1000 µM,> 1000 µM,634 µM and > 1000 µM,427 µM and > 1000 µM,898 µM and > 1000 µM,533 µM and > 1000 µM,> 1000 µM,349 µM and > 1000 µM,932 µM and > 1000 µM,370 µM and > 1000 µM,221 µM and > 1000 µM,83.1 µM and 21.2 µM,343 µM and 47.1 µM,> 1000 µM,> 1000 µM,> 1000 µM,> 1000 µM,224 µM and > 1000 µM,> 1000 µM
C/C(N=NS(=O)(=O)c1ccc(C)cc1)=C1\C=CC=CN1O,> 100 µM,> 100 µM,> 100 µM,> 100 µM,> 100 µM,–,> 100 µM,–,–,–,–,–,–,–,–,–,> 100 µM,–,–,–
COc1cc(C(=O)C2CC3(CCC2(O)c2cc(OC)c(OC)c(OC)c2)CC(=O)Nc2ccccc2C3=O)cc(OC)c1OC (configuration not stated),> 100 µM,> 100 µM,> 100 µM,–,81.2 µM,> 100 µM,> 100 µM,–,–,> 100 µM,–,–,–,> 100 µM,–,–,> 100 µM,–,–,–
Cc1cn(C2CC(O)C(Cn3nncc3Cn3ncc(=O)[nH]c3=O)O2)c(=O)[nH]c1=O (configuration not stated),> 100 µM,> 100 µM,–,–,> 100 µM,> 100 µM,> 100 µM,–,–,> 100 µM,–,–,–,> 100 µM,–,–,> 100 µM,–,–,–
c1ccc2cc3c(cc2c1)OP1(Oc2cccc4cccnc24)(O3)Oc2cc3ccccc3cc2O1,27.2 µM,> 58.9 µM,12.6 µM,35.4 µM,14.8 µM,22.5 µM,49.2 µM,–,–,79.6 µM,–,–,–,19.2 µM,–,–,20.6 µM,–,–,–
Cc1c(C2=NN=C(N=Nc3c(O)cccc3O)/C2=C/c2ccccc2)c(=O)n(-c2ccccc2)n1C,> 100 µM,> 100 µM,> 100 µM,> 100 µM,> 100 µM,> 100 µM,> 100 µM,–,–,> 100 µM,–,–,–,> 100 µM,–,–,> 100 µM,–,–,–
CC1SC(c2ccc(Cl)cc2)N(CCc2cccs2)C1=O (configuration not stated),3.4 µM,2.53 µM,3.14 µM,2.75 µM,2.75 µM,2.49 µM,3.21 µM,1.55 µM,1.36 µM,2.72 µM,1.23 µM,1.48 µM,1.39 µM,3.2 µM,1.34 µM,1.15 µM,3.42 µM,1.43 µM,1.23 µM,1.72 µM
